Measured values as given in patent publication US5118687A, “1-oxa-2-oxo-8-azaspiro(4,5)decane derivatives, pharmaceutical compositions containing them and process for preparing same” (Richter Gedeon Vegyeszeti Gyar Rt., priority 1989, dated 1992).
Counter-ions that a name gives are not always drawn.

What was measured:
[1] = system: rat brain synaptosomal preparation; experiment: Calcium uptake-inhibiting action: inhibition of potassium-stimulated 45Ca uptake in a rat brain synaptosomal preparation; format: biochemical, rat (Wistar); settings: rat brain cortex synaptosomes; 60 mM potassium chloride stimulation; 34° C.; incubation 20 seconds; pH 7.4; read-out: IC50 (50% inhibition of the stimulated 45Ca uptake)
From the text: The calcium uptake-inhibiting action of the novel compounds of formula (I) was studied on a rat brain synaptosomal preparation by using the method of P. H. Wu et al. [J. Neurochem. 39, 700 (1982)].
Wistar rats weighting 180 to 200 g were decapitated, their brains were collected in an ice-cold physiological saline solution, the cortex was removed and purified from the white substance. The tissue was homogenized in 10 volumes of 0.32M sucrose solution by using a glass-teflon potter. After centrifuging the homogenate at a rate of 1000×g at 4° C. for 10 minutes, the supernatant was further centrifuged at 10000×g for 20 minutes. The sediment was taken up in a 0.32M sucrose solution in such a way that the protein content of the preparation was adjusted to 20 mg/ml.
The medium (containing 112 mM of sodium chloride, 5 mM of potassium chloride, 1.3 mM of magnesium chloride, 1.2 mM of sodium dihydrogen phosphate, 1.2 mM of calcium chloride, 10 mM of glucose, 20 mM of IRIS buffer) used for the incubation was saturated with carbogen, consisting of 95% by volume of oxygen and 5% by volume of carbon dioxide, up to a pH of 7.4. After adding the test substances to the medium, the synaptosomal preparation was added in an amount corresponding to 1 mg of protein. The incubation was carried out in a final volume of 1 ml. The samples were pre-incubated at 34° C. for 20 minutes. The calcium uptake was begun by using a ^45 Cacl2 solution of 75 nCi activity. Potassium chloride used for investigating the potassium-induced ^45 Ca uptake was employed in 60 mM concentration whereas sodium chloride was added in the same concentration to the control samples. The incubation lasted 20 seconds. The reaction was stopped by 5 ml of a stopping solution containing 120 mM of sodium chloride, 5 mM of potassium chloride, 5 mM of EGTA and 20 mM of TRIS at pH 7.4. The samples were filtered through a Whatman GF/C filter paper and twice washed with 5 ml of a washing solution each, containing 132 mM of sodium chloride, 5 mM of potassium chloride, 1.3 mM of magnesium chloride, 1.2 mM of calcium chloride and 20 mM of IRIS at pH 7.4. (Abbreviations used above: TRIS means tris(hydroxymethyl)aminomethane; EGTA means ethylene glycol bis(β-aminoethyl) ether-N,N,N',N'-tetraacetic acid).
The filter papers were put into glass cuvets, 10 ml of a scintillation liquid each were added, then the radioactivity of the samples was measured in an 1219 Rackbeta (LKB Wallace) liquid scintillation spectrophotometer.
The IC50 values obtained by examination of the concentration/effect correlations are shown in Table I. IC50 value means the molar concentration of the test compounds which causes 50% inhibition of the stimulated ^45 Ca uptake.

[2] = system: Male Hannover-Wistar rats; experiment: Potassium cyanide test: protective effect against histotoxic hypoxia; format: in vivo, rat (Hannover-Wistar); settings: Rattus norvegicus, po, read-out: ED50 p.o. (dose protecting half of the treated animals from the hypoxia)
CFLP mice = experiment: Antihypoxic effect: asphyxial action in closed glass cylinder (method of Caillard et al.), survival time; format: in vivo, mouse (CFLP); settings: 50 mg/kg oral, 60 minutes before test; n = 10; protected = surviving longer by 30% than average survival time of control group (23.5 ± 2.51 sec)
Procedure: The antiphypoxic effect was studied by using two methods. According to the method of C. Caillard et al. [Life Sci. 16, 1607 (1975)] the asphyxial action was determined after starvation for 16 hours on CFLP mice of both sexes weighting 24 to 26 g. Each animal was placed in a separate well-closed glass cylinder. The interval passing from closing the cylinder until the cessation of the last visible respiratory movement was registered as survival time. Animals, surviving longer by 30% than the average survival time of the control group, were considered to be protected. The test substances were administered in an oral dose of 50 mg/kg by 60 minutes before starting the examination.

SMILES | IC50 [1] | ED50 [2] | Protected animals (CFLP mice)
C=C1N(C2CCCCC2)C(=O)OC12CCN(CCCC(c1ccc(F)cc1)c1ccc(F)cc1)CC2 [Compound 4, 1-Oxa-2-oxo-3-cyclohexyl-4-methylene-8-[4,4-bis(4-fluorophenyl)butyl]-3,8-diazaspiro[4,5]decane] | 5.3 µM | 37.9 mg/kg | –
CCN1C(=O)OC2(CCN(CCc3ccc(F)cc3)CC2)C1(C)O (stereo not drawn) [Compound 9, 1-Oxa-2-oxo-3-ethyl-4-hydroxy-4-methyl-8-[2-(4-fluorophenyl)ethyl]-3,8-diazaspiro[4,5]decane] | – | – | 60%
C=C1N(C(C)(C)C)C(=O)OC12CCN(CCCC(c1ccc(F)cc1)c1ccc(F)cc1)CC2 [Compound 2, 1-Oxa-2-oxo-3-tert-butyl-4-methylene-8-[4,4-bis(4-fluorophenyl)butyl]-3,8-diazaspiro[4,5]decane] | 5.9 µM | 39.9 mg/kg | –
CCCCN1C(=O)OC2(CCN(CCCC(c3ccc(F)cc3)c3ccc(F)cc3)CC2)C1(C)O (stereo not drawn) [Compound 5, 1-Oxa-2-oxo-3-butyl-4-hydroxy-4-methyl-8-[4,4-bis(4-fluorophenyl)butyl]-3,8-diazaspiro[4,5]decane hydrochloride] | 6.1 µM | – | –
C=C1N(CCCC)C(=O)OC12CCN(CCCC(c1ccc(F)cc1)c1ccc(F)cc1)CC2 [Compound 1, 1-Oxa-2-oxo-3-butyl-4-methylene-8-[4,4-bis(4-fluorophenyl)butyl]-3,8-diazaspiro[4,5]decane] | 5.8 µM | 40.9 mg/kg | –
C=C1N(c2ccccc2)C(=O)OC12CCN(CCCC(c1ccc(F)cc1)c1ccc(F)cc1)CC2 [Compound 3, 1-Oxa-2-oxo-3-phenyl-4-methylene-8-[4,4-bis(4-fluorophenyl)butyl]-3,8-diazaspiro[4,5]decane] | 2.1 µM | – | –
CCCN1C(=O)OC2(CCN(CCc3ccc(F)cc3)CC2)C1(C)O (stereo not drawn) [Compound 7, 1-Oxa-2-oxo-3-propyl-4-hydroxy-4-methyl-8-[2-(4-fluorophenyl)ethyl]-3,8-diazaspiro[4,5]decane] | – | – | 40%
CN1C(=O)OC2(CCN(CCc3ccc(F)cc3)CC2)C1(C)O (stereo not drawn) [Compound 6, 1-Oxa-2-oxo-3,4-dimethyl-4-hydroxy-8-[2-(4-fluorophenyl)ethyl]-3,8-diazaspiro[4,5]decane] | – | – | 60%
CC1(O)N(C2CCCCC2)C(=O)OC12CCN(CCc1ccc(F)cc1)CC2 (stereo not drawn) [Compound 8, 1-Oxa-2-oxo-3-cyclohexyl-4-hydroxy-4-methyl-8-[2-(4-fluorophenyl)ethyl]-3,8-diazaspiro[4,5]decane] | – | – | 60%
